Results reported in the supplement of paper PMC11061612.

What was measured:
Assay in all cases: combination Emax (second highest fraction inhibited in the dose matrix, 72 h); higher = more inhibition; extreme values may be limits of the assay
LN-18 (Glioblastoma) = system: LN-18 (Glioblastoma)
Procedure, shortened: (§1)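 Cell lines grown in DMEM/F12 or RPMI with 10% FBS were plated in 1536-well plates and held 24 hours at 37°C, 5% CO2 before 72 hours of exposure to two-drug dose matrices, with DMSO typically at 0.2%. CellTiter-Glo 2.0 luminescence gave viability, which was converted to inhibition. Vehicle wells were set to 0 and blank wells to 1. Combination Emax is the second-highest inhibition in the matrix, and Bliss excess is the observed combination effect minus the expected EA + EB − EA·EB, where EA and EB are the single-agent effects.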

[1] = system: DiFi (Colorectal Carcinoma)
Procedure, shortened: as §1

[2] = system: DND-41 (T-Lymphoblastic Leukemia)
Procedure, shortened: as §1

[3] = system: KM12 (Colorectal Carcinoma)
Procedure, shortened: as §1

WM-115 (Melanoma) = system: WM-115 (Melanoma)
Procedure, shortened: as §1

[4] = system: COLO-678 (Colorectal Carcinoma)
Procedure, shortened: as §1

[5] = system: SU-DHL-8 (B-Cell Non-Hodgkin's Lymphoma)
Procedure, shortened: as §1

[6] = system: L-540 (Hodgkin's Lymphoma)
Procedure, shortened: as §1

[7] = system: EVSA-T (Breast Carcinoma)
Procedure, shortened: as §1

[8] = system: MS751 (Cervical Carcinoma)
Procedure, shortened: as §1

MEL-JUSO (Melanoma) = system: MEL-JUSO (Melanoma)
Procedure, shortened: as §1

[9] = system: TE-6 (Esophageal Squamous Cell Carcinoma)
Procedure, shortened: as §1

[10] = system: SR (Other Blood Carcinomas)
Procedure, shortened: as §1

[11] = system: BL-41 (Burkitt's Lymphoma)
Procedure, shortened: as §1

ES1 (Ewing's Sarcoma) = system: ES1 (Ewing's Sarcoma)
Procedure, shortened: as §1

[12] = system: NCI-H847 (Small Cell Lung Carcinoma)
Procedure, shortened: as §1

TC-71 (Ewing's Sarcoma) = system: TC-71 (Ewing's Sarcoma)
Procedure, shortened: as §1

[13] = system: KARPAS-45 (T-Lymphoblastic Leukemia)
Procedure, shortened: as §1

[14] = system: KYSE-180 (Esophageal Squamous Cell Carcinoma)
Procedure, shortened: as §1

WIL2-NS (Non-Cancerous) = system: WIL2-NS (Non-Cancerous)
Procedure, shortened: as §1

SMILES	combination Emax (LN-18 (Glioblastoma))	combination Emax [1]	combination Emax [2]	combination Emax [3]	combination Emax (WM-115 (Melanoma))	combination Emax [4]	combination Emax [5]	combination Emax [6]	combination Emax [7]	combination Emax [8]	combination Emax (MEL-JUSO (Melanoma))	combination Emax [9]	combination Emax [10]	combination Emax [11]	combination Emax (ES1 (Ewing's Sarcoma))	combination Emax [12]	combination Emax (TC-71 (Ewing's Sarcoma))	combination Emax [13]	combination Emax [14]	combination Emax (WIL2-NS (Non-Cancerous))
CCN(CCO)CCCOc1ccc2c(Nc3cc(CC(=O)Nc4cccc(F)c4)[nH]n3)ncnc2c1 [AZD2811] + C=CCn1c(=O)c2cnc(Nc3ccc(N4CCN(C)CC4)cc3)nc2n1-c1cccc(C(C)(C)O)n1 [AZD1775] (first compound max 1 µM, partner max 1 µM)	0.458	0.671	0.902	0.705	0.193	0.278	0.929	0.916	0.257	0.599	0.333	0.236	0.991	1	0.779	1	0.857	0.936	0.726	0.944
Cc1cc2ncnn2cc1Nc1ncc2c(n1)n(C1CCOCC1)c(=O)n2C [AZD7648] + C[C@@H]1COCCN1C2=NC(=NC(=C2)C3(CC3)[S@](=N)(=O)C)C4=C5C=CNC5=NC=C4 [AZD6738] (first compound max 10 µM, 7x7, partner max 10 µM)	0.272	0.842	0.894	0.636	0.571	0.175	0.899	0.951	0.323	0.296	0.419	0.553	0.924	1	0.913	1	0.835	0.74	0.867	0.979
CC1(C)CCC(CN2CCN(c3ccc(C(=O)NS(=O)(=O)c4ccc(NCC5CCOCC5)c([N+](=O)[O-])c4)c(Oc4cnc5[nH]ccc5c4)c3)CC2)=C(c2ccc(Cl)cc2)C1 [Venetoclax] + COc1cc(Nc2ncc3c(n2)-c2ccc(Cl)cc2C(c2c(F)cccc2OC)=NC3)ccc1C(=O)O [Alisertib] (first compound max 1 µM, 7x7, partner max 10 µM)	0.787	0.559	0.947	0.598	0.379	0.181	0.83	0.89	0.598	0.724	0.301	0.527	0.966	0.978	0.842	1	0.855	0.982	0.377	0.825
Cc1c2c(nn1C)CSCc1cc(n(C)n1)CSc1cc(c3ccccc3c1)OCCCc1c(C(=O)O)n(C)c3c-2c(Cl)ccc13 [AZD5991] + CC1(C)CCC(CN2CCN(c3ccc(C(=O)NS(=O)(=O)c4ccc(NCC5CCOCC5)c([N+](=O)[O-])c4)c(Oc4cnc5[nH]ccc5c4)c3)CC2)=C(c2ccc(Cl)cc2)C1 [Venetoclax] (first compound max 1 µM, 7x7, partner max 1 µM)	0.374	0.624	0.418	0.173	0.59	0.0393	0.861	1	1	0.812	0.339	0.677	0.964	1	0.93	0.98	0.831	1	0.922	0.23
C[C@@H]1COCCN1c1cc(C2([S@](C)(=N)=O)CC2)nc(-c2ccnc3[nH]ccc23)n1 [AZD6738] + O=C(c1cc(Cc2n[nH]c(=O)c3ccccc23)ccc1F)N1CCN(C(=O)C2CC2)CC1 [Olaparib] (first compound max 10 µM, 7x7, partner max 10 µM)	0.877	0.775	0.947	0.615	0.518	0.159	0.888	0.936	0.346	0.395	0.418	0.498	0.97	1	0.99	0.978	0.887	0.832	0.76	0.968
Cc1cc2ncnn2cc1Nc1ncc2c(n1)n(C1CCOCC1)c(=O)n2C [AZD7648] + O=C(c1cc(Cc2n[nH]c(=O)c3ccccc23)ccc1F)N1CCN(C(=O)C2CC2)CC1 [Olaparib] (first compound max 10 µM, 7x7, partner max 10 µM)	0.132	0.258	0.26	0.21	0.229	0.132	0.448	0.396	0.253	0.197	0.104	0.328	0.514	0.14	0.686	0.853	0.6	0.177	0.0923	0.461
COc1cccc(OCCCN)c1-c1cc(Nc2cnc(C#N)cn2)n[nH]1 [Prexasertib] + C=CCn1c(=O)c2cnc(Nc3ccc(N4CCN(C)CC4)cc3)nc2n1-c1cccc(C(C)(C)O)n1 [AZD1775] (first compound max 1 µM, partner max 1 µM)	0.807	0.92	0.88	0.862	0.614	0.307	0.964	0.967	0.532	0.701	0.747	0.767	1	1	1	1	1	1	0.983	1
C=CCn1c(=O)c2cnc(Nc3ccc(N4CCN(C)CC4)cc3)nc2n1-c1cccc(C(C)(C)O)n1 [AZD1775] + O=C(c1cc(Cc2n[nH]c(=O)c3ccccc23)ccc1F)N1CCN(C(=O)C2CC2)CC1 [Olaparib] (first compound max 1 µM, partner max 10 µM)	0.217	0.678	0.878	0.748	0.259	0.205	0.877	0.946	0.289	0.215	0.401	0.319	0.995	1	0.838	1	0.583	0.847	0.774	0.931
Cc1cc2ncnn2cc1Nc1ncc2c(n1)n(C1CCOCC1)c(=O)n2C [AZD7648] + C=CCn1c(=O)c2cnc(Nc3ccc(N4CCN(C)CC4)cc3)nc2n1-c1cccc(C(C)(C)O)n1 [AZD1775] (first compound max 10 µM, partner max 1 µM)	0.366	0.821	0.813	0.764	0.469	0.27	0.87	0.945	0.291	0.387	0.494	0.363	0.986	1	0.639	1	0.496	0.819	0.778	0.954
CCN(CCO)CCCOc1ccc2c(Nc3cc(CC(=O)Nc4cccc(F)c4)[nH]n3)ncnc2c1 [AZD2811] + C[C@@H]1COCCN1C2=NC(=NC(=C2)C3(CC3)[S@](=N)(=O)C)C4=C5C=CNC5=NC=C4 [AZD6738] (first compound max 1 µM, 7x7, partner max 10 µM)	0.585	0.819	0.908	0.612	0.523	0.165	0.918	0.921	0.289	0.492	0.357	0.543	0.968	1	0.948	1	0.94	0.948	0.823	0.979
CN(CCO)CC[C@H](CSc1ccccc1)Nc1ccc(S(=O)(=O)NC(=O)c2ccc(N3CCC([C@@H](O)c4ccccc4-c4ccc(Cl)cc4)CC3)cc2)cc1S(=O)(=O)C(F)(F)F [AZD4320] + CCN(CCO)CCCOc1ccc2c(Nc3cc(CC(=O)Nc4cccc(F)c4)[nH]n3)ncnc2c1 [AZD2811] (first compound max 1 µM, 7x7, partner max 1 µM)	0.584	0.882	1	0.173	0.453	0.456	1	0.594	0.704	0.348	0.446	0.524	0.938	0.723	0.613	1		1	0.181	0.311
Cc1c2c(nn1C)CSCc1cc(n(C)n1)CSc1cc(c3ccccc3c1)OCCCc1c(C(=O)O)n(C)c3c-2c(Cl)ccc13 [AZD5991] + C=CCn1c(=O)c2cnc(Nc3ccc(N4CCN(C)CC4)cc3)nc2n1-c1cccc(C(C)(C)O)n1 [AZD1775] (first compound max 1 µM, partner max 1 µM)	0.602	0.856	0.875	0.875	0.34	0.391	1	1	1	0.9	0.749	0.773	0.923	1		1	0.578	1	0.95	0.963
